{"source": "patent US10709682B2", "about": "“Treatment of tinnitus through modulation of chloride co-transporter NKCC1 in the auditory system” (OTOLANUM AG, priority 2011, dated 2020)", "key": {"[1]": {"test_system": "behavioural correlate of tinnitus", "conditions": "chronic tinnitus induced by noise trauma; vigabatrin treatment; cited from earlier work"}, "tinnitus [2]": {"test_system": "tinnitus", "conditions": "cited from earlier work"}, "NKCC1 versus KCC2": {"test_system": "NKCC1 versus KCC2", "conditions": "Blaesse et al., 2009, cited from earlier work"}, "[3]": {"test_system": "inner hair cell ribbon synapses", "assay": "Count of inner hair cell ribbon synapses after noise or sham exposure and local treatment", "assay_type": "in vivo, rat", "conditions": "bumetanide 300 μM local at round window, 2 weeks following noise", "procedure": "Ribbon synapses of inner hair cells were counted. Sections were viewed using an Olympus AX70 microscope equipped with epifluorescence illumination (100× objective, NA=1.35) and a motorized z-axis. Images were acquired using a CCD camera and the imaging soft-ware Cell^F (OSIS GmbH, Münster, Germany). For Otoferlin and CtBP2/RIBEYE immunopositive spot counting on cryo-sectioned cochleae were performed through imaging over a distance of 8 μm with the complete coverage of the IHC nucleus and beyond in an image-stack along the z-axis (z-stack). Typically z-stacks consisted of 30 layers with a z-increment of 0.276 µm, for each layer one image per fluorochrome was acquired. Z-stacks were 3-dimensionally deconvoluted using Cell^F's RIDE module with the Nearest Neighbour algorithm (OSIS GmbH, Müster, Germany). 20 adult female Wistar rats were anaesthetized as described above for the previous experiments. First, auditory brainstem response (ABR) measurements were performed. As in Experiment 2, they were then exposed in a sound attenuation booth for 1.5 hours to a continuous 10 kHz tone at an intensity of 120 dB SPL (Group A; n×10) or sham exposed in the same setting (Group B; n=10). Animals were treated bilaterally right after noise trauma with either artificial perilymph (AP) or bumetanide (Sigma B3023, Lot 027Ko988). […] Ribbon synapses of inner hair cells were counted as in Experiment 2."}, "[4]": {"test_system": "KCC2 expression in cochlear tissue", "assay": "Real-time PCR for KCC2 expression in cochlear tissue after noise or sham exposure and local treatment", "assay_type": "in vivo, rat", "procedure": "20 adult female Wistar rats were anaesthetized as described above for the previous experiments. First, auditory brainstem response (ABR) measurements were performed. As in Experiment 2, they were then exposed in a sound attenuation booth for 1.5 hours to a continuous 10 kHz tone at an intensity of 120 dB SPL (Group A; n×10) or sham exposed in the same setting (Group B; n=10). Animals were treated bilaterally right after noise trauma with either artificial perilymph (AP) or bumetanide (Sigma B3023, Lot 027Ko988). AP was prepared freshly in accordance with Guitton et al., 2003 (140 mM NaCl, 4 mM KCl, 2 mM CaCl2, 2m M MgCl2, 10 mM glucose, 10 mM HePES). Bumetanide (300 μM) was prepared as follows: 50 mg of bumetanide powder was diluted in 6.87 ml AP. This 20 mM stock solution was diluted 1:66 in AP (15.15 μL stock solution and 984.85 μL AP). 5 animals of Group A and 5 animals of Group B received AP (total 10 animals) and 5 animals of Group A and 5 animals of Group B received bumetanide total (10 animals). For the local treatment administration, the fur was removed behind the ears and the bulla exposed in a retro-auricular approach. A small hole was carefully drilled into the bony bulla just above the round window niche (0.6-1 mm in diameter). The mucosa was opened and the region around the round window carefully dried of fluid. Through the hole, a small gel-foam pellet (Gelita Tampon; Braun, Melsungen, Germany) was inserted into the round window niche, 5-8 μl of bumetanide solution or AP were applied on the gel foam by means of a precision pipette with gel loader tips, thus avoiding air bubbles under the gel. […] The hole in the bulla was then covered from the outside with muscular tissue and the wound was sutured with surgical thread (Vicryl, Johnson & Johnson, Norderstedt, Germany). Postoperatively the animals were kept warm with the body temperature being controlled until wake-up. […] For the real-time PCR reaction 12.5 μl of SYBRGreen (QuantiFast Sybr Green, Qiagen), 1 μl Primer Mix, 7.3 μl ddH2O and 4 μl cDNA were used per well. […]"}, "tinnitus [5]": {"test_system": "tinnitus", "conditions": "Westerberg et al., 1996 (baclofen); Piccirillo et al., 2007 (gabapentin); cited from earlier work"}}, "note": "Entries after “also recorded” stand apart in the source; their conditions may differ.", "data": [{"smiles": "C=CC(N)CCC(=O)O", "note": "(stereo not drawn) [vigabatrin]", "values": [{"measurement": "Behavioural correlate of tinnitus", "setting": "[1]", "result": "reversibly suppressed"}]}, {"smiles": "NS(=O)(=O)c1cc(C(=O)O)c(NCc2ccco2)cc1Cl", "note": "[furosemide]", "values": [{"measurement": "Induction of tinnitus and hearing loss", "setting": "tinnitus [2]; administered at high doses", "result": "induce temporary tinnitus and hearing loss"}, {"measurement": "Suppression of tinnitus", "setting": "tinnitus [2]; patients, effects only for tinnitus of cochlear rather than central origin", "result": "suppress tinnitus, albeit only in a reversible fashion and not in all patients"}, {"measurement": "Potency of blocking NKCC1 versus KCCs", "setting": "NKCC1 versus KCC2", "result": "approximately equal potency"}]}, {"smiles": "CCCCNc1cc(C(=O)O)cc(S(N)(=O)=O)c1Oc1ccccc1", "note": "[bumetanide]", "values": [{"measurement": "Decline of inner hair cell ribbons in noise exposed ears that received bumetanide versus sham exposed", "setting": "[3]; midbasal and basal cochlear turns", "result": "not significant"}, {"measurement": "Inner hair cell ribbon numbers in noise exposed ears, bumetanide versus AP treated", "setting": "[3]; noise exposed ears, p<0.02", "result": "significant difference; also recorded: reduced loss of inner hair cell ribbons"}, {"measurement": "KCC2 expression (down-regulation) in noise exposed, bumetanide treated ears versus sham exposed ears", "setting": "[4]; noise exposed ears (10 kHz, 120 dB SPL, 1.5 h), bumetanide 300 μM local at round window, 15 days following treatment", "result": "No such down-regulation"}, {"measurement": "KCC2 expression in noise exposed ears, bumetanide treated versus AP treated", "setting": "[4]; noise exposed ears, bumetanide 300 μM local at round window, 15 days following treatment, p<0.01", "result": "statistically significant difference; also recorded: statistically significantly different"}, {"measurement": "KCC2 expression, bumetanide versus AP treated, sham exposed ears", "setting": "[4]; sham exposed ears (Group B), bumetanide 300 μM, 5-8 μl on gel foam at round window niche, cochlear tissue 15 days following treatment", "result": "no difference"}, {"measurement": "Affinity for NKCC1 versus KCC2", "setting": "NKCC1 versus KCC2; Payne et al., 2003", "result": "much higher affinity for NKCC1 than for KCC2"}]}, {"smiles": "NCC1(CC(=O)O)CCCCC1", "note": "[gabapentin]", "values": [{"measurement": "Effect on tinnitus", "setting": "tinnitus [5]", "result": "no effects at all"}]}, {"smiles": "NCC(CC(=O)O)c1ccc(Cl)cc1", "note": "(stereo not drawn) [baclofen]", "values": [{"measurement": "Effect on tinnitus", "setting": "tinnitus [5]", "result": "no effects at all"}]}]}
